Reference: patent US20220177511A1, “SERIES OF HALOGENATED TETRACYCLIC TRITERPENE DERIVATIVES AND THEIR PREPARATION AND APPLICATION” (SHANGHAI KING-X BIOTECH CO., LTD, priority 2019, published 2022)
Like-named read-outs stand apart in the source and are kept apart here.

Tests used:
[1] = Plasma pharmacokinetics after single intravenous injection in rats; assay type: in vivo; conditions: rat, intravenous 2 mg/kg, Mean ± SD; for concentration at 0.05 h: read-out: C0.05; for MRT inf: read-out: MRT0-∞; for Vd: read-out: Vz
Method: Strain: SD rat; Gender: half male and female. Weight: about 200-250 g. Source: Shanghai Slac Laboratory Animal Co., Ltd. Laboratory Animal Production License No.: SOCK (Shanghai) 2017-0005. Laboratory Animal Use License Certificate number: SYXK (Shanghai) 2014-0018. Breeding: constant temperature purification and ventilation animal room, 20-26° C., free food and water, humidity 40-70%, light for 12 h.
Route B: single intravenous injection. Volume: calculated according to 5 mL/kg body weight. Preparation: an appropriate amount of compound 2 is dissolved in 3% total volume of DMSO. 3% total volume of castor oil is added to the solution and mixed by vortexing, an appropriate amount of normal saline is added to form an intravenous drug solution (0.4 mg/mL clear solution).
12 SD rats were divided into 2 groups, 6 rats in each group, […]. Fasting for 12 h before administration, free drinking water. The doses of 10 mg/kg were administered as a single gavage, and the doses of 2 mg/kg were administered as a single intravenous injection. About 100 μL orbital blood was collected before administration, 3 min, 10 min, 20 min, 30 min, 1 h, 2 h, 3 h, 4 h, 6 h, 8 h, 11 h, and 24 h after administration. For intravenous administration, orbital blood was collected before administration, 3 min, 8 min, 15 min, 30 min, 1 h, 2 h, 3 h, 4 h, 6 h, 8 h, 11 h, 24 h after injection. The blood was anticoagulated with 1% heparin, centrifuged at 8000 rpm for 4 min, and the plasma was separated. Store at −20° C. High concentration samples were diluted with blank plasma. 2.1.4 Determination method of plasma samples 2.1.4.1 Instrument (LC-MS/MS)
Liquid chromatography system: Ultimate3000 liquid chromatography system (including Ultimate3000 ternary infusion pump, Ultimate3000 column oven, Ultimate3000 autosampler and Ultimate3000 vacuum degasser), Dionex Corporation. MS/MS system: 4000 Q-Trap tandem mass spectrometer with electrospray ionization source (ESI source), AB Company
Column: Athena C18-WP 100A (2.1×50 mm, 5 μm); Injection volume: 10 μL; Mobile phase: A: acetonitrile; C: 0.05% ammonia, gradient elution (see table below); Flow rate: 0.3 mL/min
The ion source is electrospray ionization source (ESI), the drying gas (N2) temperature is 500° C., the electrospray voltage is −4500 V, the detection method is negative ion detection, the scanning method is the […] (MRM) method and the scanning time is 0.15 s. The mass spectrometry parameters are as follows:
50 μL of rat whole blood was added with 2.5 μL of internal standard working solution (250 ng/mL tolbutamide). 150 μL of acetonitrile was used to precipitate the proteins. The sample was centrifuged at 13,000 rpm and 4° C. for 5 min. The upper organic phase was taken and filtered with a 0.22 μM microporous membrane, which was then analyzed by LC-MS/MS.

**Q.** With `CC(C)(O)[C@@H]1CC[C@](C)([C@H]2[C@@H](O)C[C@@]3(C)[C@@H]4C[C@H](O)[C@H]5C(C)(C)C(F)(F)CC[C@@]56C[C@@]46CC[C@]23C)O1` [Compound 2, (2aR,3R,4S,5aS,5bS,7S,7aR,11aR,12aS)-9,9-difluoro-3-((2R,5S)-5-(2-hydroxypropan-2-yl)-2-methyltetrahydrofuran-2-yl)-2a,5a,8,8-tetramethyltetradecahydro-1H,12H-cyclopenta[a]cyclopropa[e]phenanthrene-4,7-diol] as the molecule, how does the AUC0-t ([1]; both sexes, all rats (♂ and ♀)) read?
**A.** 1590 ± 585 ng·h/mL

**Q.** And the AUC(0-inf) ([1]; both sexes, all rats (♂ and ♀))?
**A.** 1660 ± 656 ng·h/mL

**Q.** What about the clearance ([1]; both sexes, all rats (♂ and ♀)) of the same molecule?
**A.** 23 mL/min/kg

**Q.** And the half-life ([1]; both sexes, all rats (♂ and ♀))?
**A.** 1.18 ± 0.41 h

**Q.** What about the concentration at 0.05 h ([1]; both sexes, all rats (♂ and ♀)) of the same molecule?
**A.** 1460 ± 232 ng/mL

**Q.** And the MRT inf ([1]; both sexes, all rats (♂ and ♀))?
**A.** 1.55 ± 0.59 h

**Q.** What about the Vd ([1]; both sexes, all rats (♂ and ♀)) of the same molecule?
**A.** 2.13 ± 0.38 L/kg

**Q.** What about the AUC0-t ([1]; female, rats ♀) of the same molecule?
**A.** 2120 ± 114 ng·h/mL

**Q.** And the AUC(0-inf) ([1]; female, rats ♀)?
**A.** 2250 ± 206 ng·h/mL

**Q.** What about the clearance ([1]; female, rats ♀) of the same molecule?
**A.** 14.9 mL/min/kg

**Q.** And the half-life ([1]; female, rats ♀)?
**A.** 1.47 h

**Q.** What about the concentration at 0.05 h ([1]; female, rats ♀) of the same molecule?
**A.** 1390 ± 250 ng/mL

**Q.** What about the MRT inf ([1]; female, rats ♀) of the same molecule?
**A.** 2.03 ± 0.41 h

**Q.** What about the Vd ([1]; female, rats ♀) of the same molecule?
**A.** 1.86 ± 0.348 L/kg

**Q.** And the AUC0-t ([1]; male, rats ♂)?
**A.** 1060 ± 113 ng·h/mL

**Q.** And the AUC(0-inf) ([1]; male, rats ♂)?
**A.** 1080 ± 106 ng·h/mL

**Q.** And the clearance ([1]; male, rats ♂)?
**A.** 31 mL/min/kg

**Q.** What about the half-life ([1]; male, rats ♂) of the same molecule?
**A.** 0.9 h

**Q.** What about the concentration at 0.05 h ([1]; male, rats ♂) of the same molecule?
**A.** 1540 ± 233 ng/mL

**Q.** And the MRT inf ([1]; male, rats ♂)?
**A.** 1.07 ± 0.09 h

**Q.** And the Vd ([1]; male, rats ♂)?
**A.** 2.39 ± 0.168 L/kg

**Q.** What about the melting point of the same molecule?
**A.** 189 to 192 °C
